# Measurements as given in patent US10421782B2, “Cyclic cationic peptides with antimicrobial activity” (I.C.F. S.R.L., priority 2012, dated 2019).
# Values joined by “and” are separate entries in the source; they are usually repeats but may differ in a detail not shown here. Identical values can stand only once. Like-named read-outs stand apart in the source and are kept apart here.
# What was measured:
# S. aureus ATCC 25923 = assay: Broth-microdilution test and subsequent plating on agar, Gram-positive bacteria; assay type: cell-based, Staphylococcus aureus; details: meticillin-sensitive, 2 h contact at 37° C., CFU count after 24 h
# Description: For each bacterial strain, 3-5 morphologically similar colonies were drawn from fresh cultures, inoculated in Brain Hearth Infusion broth liquid medium and incubated at the temperature of 37° C. under shaking at 225 r.p.m. for 3-4 h. Subsequently, the bacterial suspension was centrifuged at 1000 g for 20 min and the thus obtained pellet was resuspended in phosphate buffer 10 mM. Turbidity was measured in a spectrophotometer with absorbance at 600 nm, equivalent in the range 0.08-0.13 to a concentration of about 10^8 CFU/ml. The bacterial suspension was diluted 1:100 in phosphate buffer 10 mM, and within 30 min, 50 microliters of such bacterial suspension (10^6 CFU/ml) were inoculated in each well of the microtiter plate, to obtain a final bacterial concentration of about 5×10^5 CFU/ml.
# Several synthetic peptides were tested for their ability to inhibit bacterial growth. Fifty microliters of peptide at a concentration comprised between about 0.2 mM and about 50 mM were added to 96-well U-bottom plates containing phosphate buffer and one of the following bacteria: S. aureus ATCC 25923, meticillin-resistant S. aureus ATCC 43300. After 2 hour incubation at 37° C., bacteria were transferred on a solid medium. As a control, the bacterial cultures were cultured in the absence of peptide.
# The bacterial suspension was put in contact for two hours with different concentrations of the peptide at the temperature of 37° C. After incubation, 20 μl were drawn from the wells of each dilution and seeded on solid medium, Columbia agar supplemented with 5% bovine red blood cells for Gram-positive bacteria. The inoculum was evenly distributed on the agarized medium by means of a sterile disposable loop. After incubation for 24 hours at the temperature of 37° C., counting of the bacterial colonies (CFU) was performed.
# P. aeruginosa ATCC 27853 = assay type: cell-based, Pseudomonas aeruginosa; details: ATCC 27853, 2 h
# Description: Several peptides were tested for their ability to inhibit bacterial growth in liquid culture. Fifty microliters of peptide at a concentration between about 0.2 mM and 50 mM were added in 96-well U-bottom plates containing phosphate buffer 10 mM supplemented with 125 or 250 mM NaCl and one of the following bacteria: Escherichia coli ATCC 25922, P. aeruginosa ATCC 27853. After 2 hour incubation at 37° C., bacteria were transferred on a solid medium. As a growth control, the bacterial cultures were cultured in the absence of peptides.
# The bacterial suspension was put in contact for two hours with different concentrations of the peptide at the temperature of 37° C. After incubation, 20 μl were drawn from the wells of each dilution and seeded on the solid medium agar McConkey for Gram-negative bacteria and Columbia agar supplemented with 5% bovine red blood cells for Gram-positive bacteria. The inoculum was evenly distributed on the agarized medium by means of a sterile disposable loop. After incubation for 24 h at the temperature of 37° C., counting of the colony forming units (CFU) was performed.
# In table 6A, the antimicrobial activity against E. coli ATCC 25922, Pseudomonas aeruginosa ATCC 27853 in the presence of […] NaCl is reported.
compound,measurement,setting,value
"CC[C@H](C)[C@@H]1NC(=O)[C@H](CCCCN)NC(=O)[C@H](C)NC(=O)[C@@H](NC(=O)[C@H](CCCCN)NC(=O)[C@@H](N)Cc2c[nH]cn2)CSSC[C@@H](C(=O)N[C@@H](C)C(=O)O)NC(=O)[C@H](Cc2ccc(O)cc2)NC(=O)[C@H](CCCCN)NC(=O)[C@H](C(C)C)NC(=O)[C@H](Cc2c[nH]cn2)NC(=O)[C@H](C(C)C)NC(=O)CNC(=O)[C@H](CCCNC(=N)N)NC(=O)[C@H](Cc2c[nH]c3ccccc23)NC(=O)[C@H](CCCCN)NC1=O (relative stereo) [Peptide P2041, HIS*LYS*CYS*ALA*LYS*ILE*LYS*TRP*ARG*GLY*VAL*HIS*VAL*LYS*TYR*CYS*ALA]",LD90 S. aureus ATCC 25923,S. aureus ATCC 25923,1.42 µM
same,LD90 S. aureus ATCC 25923,S. aureus ATCC 25923; listed as 2041,1.42 μM and 2.89 μg/ml
same,Antimicrobial activity (percentage of CFU growth inhibition) P. aeruginosa,P. aeruginosa ATCC 27853; 12.5 μg/ml,100%
same,Antimicrobial activity (percentage of CFU growth inhibition) P. aeruginosa,P. aeruginosa ATCC 27853; 100 μg/ml,100%
